Data taken from ChEMBL document CHEMBL3808348, “Rational Design, Synthesis, and Biological Evaluation of 7-Azaindole Derivatives as Potent Focused Multi-Targeted Kinase Inhibitors” (J Med Chem, 2016).

What was measured:
[1] = target: Vascular endothelial growth factor receptor 2 (Homo sapiens) (UniProt P35968); assay: Inhibition of full length His-tagged human recombinant VEGFR2 expressed in baculovirus using Fluorescein-Poly GT as substrate at 100 nM
[2] = target: MAP kinase-activated protein kinase 5 (Homo sapiens) (UniProt Q8IW41); conditions: 100 nM
Description: Inhibition of His-tagged full length human recombinant MAPKAPK5 expressed in baculovirus at 100 nM

[3] = target: Proto-oncogene tyrosine-protein kinase ROS (Homo sapiens) (UniProt P08922); conditions: 100 nM
Description: Inhibition of GST-tagged human recombinant ROS1 (1883 to 2347 residues) expressed in baculovirus using Fluorescein-Poly GT as substrate at 100 nM

Homo sapiens = species: Homo sapiens; conditions: 100 nM
Description: Inhibition of CK1 (unknown origin) at 100 nM

[4] = target: Vascular endothelial growth factor receptor 2 (Homo sapiens) (UniProt P35968); conditions: 100 nM
Description: Inhibition of His-tagged human recombinant VEGFR2 (789 to 1356 residues) expressed in baculovirus using Fluorescein-Poly GT as substrate at 100 nM

[5] = AUC(0 to infinity) in Swiss mouse plasma at 2 mg/kg, iv by LC/MS/MS analysis; assay type: ADME, organism-based; parameters: dose 2 mg/kg, route intravenous, time infinity
[6] = target: Serine/threonine-protein kinase Chk2 (Homo sapiens) (UniProt O96017); conditions: 100 nM
Description: Inhibition of His-tagged human recombinant CHK2 expressed in baculovirus using Fluorescein-CREBtide as substrate at 100 nM

[7] = target: Receptor tyrosine-protein kinase erbB-4 (Homo sapiens) (UniProt Q15303); conditions: 100 nM
Description: Inhibition of GST-tagged human recombinant ERBB4 (708 to 993 residues) expressed in baculovirus using Fluorescein-Poly GT as substrate at 100 nM

[8] = target: Protein kinase C delta type (Homo sapiens) (UniProt Q05655); conditions: 100 nM
Description: Inhibition of full length human recombinant PKCdelta expressed in baculovirus using Fluorescein-PKC as substrate at 100 nM

[9] = target: Tyrosine-protein kinase HCK (Homo sapiens, UniProt P08631); assay: Inhibition of GST-tagged full length human recombinant HCK expressed in baculovirus using Fluorescein-Poly GT as substrate
[10] = target: Serine/threonine-protein kinase PAK 2 (Homo sapiens) (UniProt Q13177); conditions: 100 nM
Description: Inhibition of GST-tagged full length human recombinant PAK2 expressed in baculovirus at 100 nM

[11] = target: 3-phosphoinositide-dependent protein kinase 1 (Homo sapiens) (UniProt O15530); conditions: 100 nM
Description: Inhibition of PDK1 (unknown origin) at 100 nM

[12] = target: Tyrosine-protein kinase Mer (Homo sapiens) (UniProt Q12866); conditions: 100 nM
Description: Inhibition of GST-tagged human recombinant cMER expressed in baculovirus using Fluorescein-Poly GT as substrate at 100 nM

[13] = target: Tyrosine-protein kinase Yes (Homo sapiens, UniProt P07947); assay: Inhibition of GST-tagged full length human recombinant YES expressed in baculovirus using Fluorescein-Poly GT as substrate at 100 nM
[14] = target: Mitogen-activated protein kinase 1 (Homo sapiens) (UniProt P28482); conditions: 100 nM
Description: Inhibition of GST-tagged full length human recombinant ERK2 expressed in Escherichia coli using GFP-AT F2 as substrate at 100 nM

PBMC = assay: Hematotoxicity in human PHA/IL2-stimulated PBMC; assay type: cell-based
A549 = assay: Antiproliferative activity against human A549 cells after 72 hrs by MTT assay; assay type: functional, cell-based; conditions: A549, 72 h
[15] = target: CDK9/cyclin T1 (Homo sapiens) (UniProt O60563+P50750); conditions: 100 nM
Description: Inhibition of CDK9/cyclinT1 (unknown origin) at 100 nM

HepG2 = assay: Antiproliferative activity against human HepG2 cells after 72 hrs by MTT assay; assay type: functional, cell-based; conditions: HepG2, 72 h
[16] = target: Tyrosine-protein kinase Fes/Fps (Homo sapiens) (UniProt P07332); conditions: 100 nM
Description: Inhibition of His-tagged full length human recombinant FES expressed in baculovirus using Fluorescein-Poly GT as substrate at 100 nM

[17] = target: Tyrosine-protein kinase ITK/TSK (Homo sapiens) (UniProt Q08881); conditions: 100 nM
Description: Inhibition of GST-tagged full length human recombinant ITK expressed in baculovirus using Fluorescein-Poly GT as substrate at 100 nM

[18] = target: Ephrin type-A receptor 1 (Homo sapiens) (UniProt P21709); conditions: 100 nM
Description: Inhibition of GST-tagged human recombinant EPHA1 (568 to 976 residues) expressed in baculovirus using Fluorescein-Poly GT as substrate at 100 nM

[19] = target: Aurora kinase B (Homo sapiens) (UniProt Q96GD4); conditions: 100 nM
Description: Inhibition of full length His-tagged human recombinant Aurora B expressed in baculovirus using Fluorescein-CREBtide as substrate at 100 nM

[20] = target: Focal adhesion kinase 1 (Homo sapiens) (UniProt Q05397); conditions: 100 nM
Description: Inhibition of full length GST-tagged human recombinant FAK expressed in baculovirus using Fluorescein-Poly GT as substrate at 100 nM

[21] = target: Tyrosine-protein kinase receptor TYRO3 (Homo sapiens) (UniProt Q06418); conditions: 100 nM
Description: Inhibition of GST-tagged human recombinant TYRO3 (451 to 890 residues) expressed in baculovirus using Fluorescein-Poly GT as substrate at 100 nM

[22] = target: Tyrosine-protein kinase ABL1 (Homo sapiens, UniProt P00519, E255K); assay: Inhibition of His-tagged full length human recombinant ABL E255K mutant expressed in baculovirus using Fluorescein-Poly GT as substrate
[23] = target: Proto-oncogene tyrosine-protein kinase Src (Homo sapiens, UniProt P12931); assay: Inhibition of full length His-tagged human recombinant cSRC expressed in baculovirus using Fluorescein-Poly GT as substrate at 100 nM
[24] = target: Protein kinase C epsilon type (Homo sapiens) (UniProt Q02156); conditions: 100 nM
Description: Inhibition of full length human recombinant PKCepsilon expressed in baculovirus using Fluorescein-PKC as substrate at 100 nM

[25] = target: Testis-specific serine/threonine-protein kinase 2 (Homo sapiens) (UniProt Q96PF2); conditions: 100 nM
Description: Inhibition of His-tagged full length human recombinant TSSK2 expressed in baculovirus at 100 nM

[26] = target: CDK7/Cyclin H/MNAT1 (Homo sapiens) (UniProt P51946+P50613+P51948); conditions: 100 nM
Description: Inhibition of CDK7/cyclinH/MNAT1 (unknown origin) at 100 nM

[27] = target: Tyrosine-protein kinase Fgr (Homo sapiens) (UniProt P09769); assay: Inhibition of His-tagged full length human recombinant FGR expressed in baculovirus using Fluorescein-Poly GT as substrate at 100 nM
[28] = target: T1, Tyrosine-protein kinase Fyn (Homo sapiens, UniProt P06241); assay: Inhibition of His-tagged full length human recombinant FYN expressed in baculovirus using Fluorescein-Poly GT as substrate
[29] = Antiangiogenic activity in HRMEC after 72 hrs by MTT assay; assay type: functional, Homo sapiens
[30] = target: Tyrosine-protein kinase Lyn (Homo sapiens, UniProt P07948); assay: Inhibition of GST-tagged full length human recombinant LYNA expressed in baculovirus using Fluorescein-Poly GT as substrate at 100 nM
[31] = target: Ephrin type-A receptor 4 (Homo sapiens) (UniProt P54764); conditions: 100 nM
Description: Inhibition of GST-tagged human recombinant EPHA4 (616 to 887 residues) expressed in baculovirus using Fluorescein-Poly GT as substrate at 100 nM

[32] = target: Protein kinase C theta type (Homo sapiens) (UniProt Q04759); conditions: 100 nM
Description: Inhibition of full length His-tagged human recombinant PKCtheta expressed in baculovirus using Fluorescein-PKC as substrate at 100 nM

[33] = Antiproliferative activity against human PC3 cells after 72 hrs by MTT assay; assay type: functional, cell-based; conditions: PC-3, 72 h
[34] = target: Mast/stem cell growth factor receptor Kit (Homo sapiens) (UniProt P10721); conditions: 100 nM
Description: Inhibition of His-tagged human recombinant cKIT expressed in baculovirus using Fluorescein-Poly GT as substrate at 100 nM

[35] = target: Insulin receptor-related protein (Homo sapiens) (UniProt P14616); conditions: 100 nM
Description: Inhibition of GST-tagged human recombinant INSRR (944 to 1297 residues) expressed in baculovirus using Fluorescein-Poly GT as substrate at 100 nM

[36] = target: Protein kinase C alpha type (Homo sapiens) (UniProt P17252); conditions: 100 nM
Description: Inhibition of full length human recombinant PKCalpha expressed in baculovirus using Fluorescein-PKC as substrate at 100 nM

HT-29 = assay: Antiproliferative activity against human HT-29 cells after 72 hrs by MTT assay; assay type: functional, cell-based; conditions: HT-29, 72 h
[37] = target: Rho-associated protein kinase 2 (Homo sapiens) (UniProt O75116); conditions: 100 nM
Description: Inhibition of GST-tagged human recombinant ROCK2 ( 1 to 552 residues) expressed in baculovirus using Fluorescein-PKC as substrate at 100 nM

[38] = target: T1, Tyrosine-protein kinase Fyn; conditions: 100 nM
Description: Inhibition of His-tagged full length human recombinant FYN expressed in baculovirus using Fluorescein-Poly GT as substrate at 100 nM

[39] = target: Aurora kinase C (Homo sapiens) (UniProt Q9UQB9); conditions: 100 nM
Description: Inhibition of full length His-tagged human recombinant Aurora C expressed in baculovirus using Fluorescein-CREBtide as substrate at 100 nM

Vascular endothelial growth factor receptor 2 (Homo sapiens), sequence (P35968 whole entry): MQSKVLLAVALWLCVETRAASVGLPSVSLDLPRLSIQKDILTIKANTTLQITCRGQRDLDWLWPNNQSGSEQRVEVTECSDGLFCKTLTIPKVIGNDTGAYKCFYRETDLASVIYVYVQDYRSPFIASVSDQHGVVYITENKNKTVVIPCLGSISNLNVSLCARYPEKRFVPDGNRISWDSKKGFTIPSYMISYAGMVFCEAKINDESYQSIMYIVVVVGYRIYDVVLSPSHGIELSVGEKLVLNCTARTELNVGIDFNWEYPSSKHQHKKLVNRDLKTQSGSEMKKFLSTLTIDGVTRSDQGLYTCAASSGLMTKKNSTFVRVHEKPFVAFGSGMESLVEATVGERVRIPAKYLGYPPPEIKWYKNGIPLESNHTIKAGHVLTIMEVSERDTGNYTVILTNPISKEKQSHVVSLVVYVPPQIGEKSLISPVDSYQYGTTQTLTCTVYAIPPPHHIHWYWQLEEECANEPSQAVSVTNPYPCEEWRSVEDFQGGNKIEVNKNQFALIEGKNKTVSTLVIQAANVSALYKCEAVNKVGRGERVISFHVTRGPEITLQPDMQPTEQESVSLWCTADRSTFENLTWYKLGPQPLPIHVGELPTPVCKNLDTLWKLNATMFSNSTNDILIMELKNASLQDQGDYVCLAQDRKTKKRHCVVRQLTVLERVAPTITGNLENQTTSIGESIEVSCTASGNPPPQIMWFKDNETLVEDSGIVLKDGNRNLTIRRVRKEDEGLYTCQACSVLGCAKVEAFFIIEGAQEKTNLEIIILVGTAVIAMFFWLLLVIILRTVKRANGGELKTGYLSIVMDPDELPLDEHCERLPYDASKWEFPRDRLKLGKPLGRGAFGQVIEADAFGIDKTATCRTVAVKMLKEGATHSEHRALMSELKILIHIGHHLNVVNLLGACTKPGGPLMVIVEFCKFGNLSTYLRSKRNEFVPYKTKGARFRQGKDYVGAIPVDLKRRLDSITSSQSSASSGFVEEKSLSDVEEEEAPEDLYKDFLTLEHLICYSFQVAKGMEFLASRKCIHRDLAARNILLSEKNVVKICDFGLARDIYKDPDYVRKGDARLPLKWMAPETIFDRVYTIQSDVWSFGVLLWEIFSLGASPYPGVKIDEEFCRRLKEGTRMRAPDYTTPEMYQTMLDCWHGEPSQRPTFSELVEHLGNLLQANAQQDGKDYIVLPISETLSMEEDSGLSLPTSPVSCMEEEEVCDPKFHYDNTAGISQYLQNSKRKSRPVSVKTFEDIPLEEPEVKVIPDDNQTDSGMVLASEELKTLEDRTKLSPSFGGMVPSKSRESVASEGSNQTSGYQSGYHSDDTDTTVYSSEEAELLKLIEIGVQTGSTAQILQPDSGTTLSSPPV
Mast/stem cell growth factor receptor Kit (Homo sapiens), sequence (P10721 whole entry): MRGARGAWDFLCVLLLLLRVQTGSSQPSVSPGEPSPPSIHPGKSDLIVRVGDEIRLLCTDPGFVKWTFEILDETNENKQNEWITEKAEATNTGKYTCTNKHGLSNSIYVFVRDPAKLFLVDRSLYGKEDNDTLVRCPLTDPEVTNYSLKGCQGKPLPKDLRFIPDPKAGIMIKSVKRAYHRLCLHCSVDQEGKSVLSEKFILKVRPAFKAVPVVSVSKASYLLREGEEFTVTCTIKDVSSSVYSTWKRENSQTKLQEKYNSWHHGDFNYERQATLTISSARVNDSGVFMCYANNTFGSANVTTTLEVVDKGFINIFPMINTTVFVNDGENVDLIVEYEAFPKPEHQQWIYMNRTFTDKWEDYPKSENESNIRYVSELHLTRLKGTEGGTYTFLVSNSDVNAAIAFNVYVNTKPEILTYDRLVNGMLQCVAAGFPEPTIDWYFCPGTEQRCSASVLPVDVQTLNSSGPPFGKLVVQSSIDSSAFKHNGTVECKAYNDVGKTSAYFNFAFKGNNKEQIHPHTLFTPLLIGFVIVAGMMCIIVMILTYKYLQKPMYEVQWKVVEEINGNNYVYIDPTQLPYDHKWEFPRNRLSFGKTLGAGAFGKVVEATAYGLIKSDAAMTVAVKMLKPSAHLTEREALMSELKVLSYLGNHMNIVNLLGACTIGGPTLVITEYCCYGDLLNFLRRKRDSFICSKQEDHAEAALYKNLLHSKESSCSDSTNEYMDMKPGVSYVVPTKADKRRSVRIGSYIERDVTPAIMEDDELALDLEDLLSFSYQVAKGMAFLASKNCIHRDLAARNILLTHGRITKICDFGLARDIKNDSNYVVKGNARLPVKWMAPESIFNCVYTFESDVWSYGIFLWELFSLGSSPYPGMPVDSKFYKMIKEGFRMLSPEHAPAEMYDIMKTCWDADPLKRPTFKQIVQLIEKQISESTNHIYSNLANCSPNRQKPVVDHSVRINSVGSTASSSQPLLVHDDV
Rho-associated protein kinase 2 (Homo sapiens), sequence (O75116 whole entry, looked up): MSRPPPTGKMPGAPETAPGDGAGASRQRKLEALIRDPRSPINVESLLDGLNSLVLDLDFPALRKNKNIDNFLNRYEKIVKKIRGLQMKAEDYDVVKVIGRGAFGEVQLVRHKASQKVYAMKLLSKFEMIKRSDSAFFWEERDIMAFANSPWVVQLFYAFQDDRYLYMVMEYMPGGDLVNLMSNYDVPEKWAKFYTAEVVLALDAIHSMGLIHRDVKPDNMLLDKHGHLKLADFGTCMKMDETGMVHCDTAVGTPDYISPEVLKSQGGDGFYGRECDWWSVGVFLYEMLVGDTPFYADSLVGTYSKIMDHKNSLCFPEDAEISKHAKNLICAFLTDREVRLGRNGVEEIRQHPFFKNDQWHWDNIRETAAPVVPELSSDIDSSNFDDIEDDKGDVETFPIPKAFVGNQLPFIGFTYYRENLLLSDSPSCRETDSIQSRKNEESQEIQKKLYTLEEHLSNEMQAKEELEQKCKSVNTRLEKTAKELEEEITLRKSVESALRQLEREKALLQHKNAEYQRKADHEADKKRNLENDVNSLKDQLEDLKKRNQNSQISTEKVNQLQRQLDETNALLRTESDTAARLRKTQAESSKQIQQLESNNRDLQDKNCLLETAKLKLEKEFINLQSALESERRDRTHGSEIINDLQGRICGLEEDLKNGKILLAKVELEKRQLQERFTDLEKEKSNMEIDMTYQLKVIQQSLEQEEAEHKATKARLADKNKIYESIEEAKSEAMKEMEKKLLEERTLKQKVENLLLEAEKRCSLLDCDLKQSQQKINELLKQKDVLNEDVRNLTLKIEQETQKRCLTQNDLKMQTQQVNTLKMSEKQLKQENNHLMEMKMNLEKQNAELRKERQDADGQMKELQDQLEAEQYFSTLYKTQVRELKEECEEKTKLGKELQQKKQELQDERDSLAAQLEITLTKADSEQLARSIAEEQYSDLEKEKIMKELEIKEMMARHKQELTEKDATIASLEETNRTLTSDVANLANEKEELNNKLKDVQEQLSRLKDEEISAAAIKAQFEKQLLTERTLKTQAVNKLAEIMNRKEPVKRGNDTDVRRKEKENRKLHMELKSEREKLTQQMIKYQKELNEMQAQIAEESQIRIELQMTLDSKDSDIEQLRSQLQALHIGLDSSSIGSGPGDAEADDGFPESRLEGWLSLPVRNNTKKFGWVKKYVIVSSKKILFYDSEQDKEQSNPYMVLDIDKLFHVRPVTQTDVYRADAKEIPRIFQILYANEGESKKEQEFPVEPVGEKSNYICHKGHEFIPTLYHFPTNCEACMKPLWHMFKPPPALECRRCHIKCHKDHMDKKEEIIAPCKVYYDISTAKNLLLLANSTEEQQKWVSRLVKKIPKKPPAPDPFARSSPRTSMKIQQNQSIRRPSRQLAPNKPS
Mitogen-activated protein kinase 1 (Homo sapiens), sequence (P28482 whole entry): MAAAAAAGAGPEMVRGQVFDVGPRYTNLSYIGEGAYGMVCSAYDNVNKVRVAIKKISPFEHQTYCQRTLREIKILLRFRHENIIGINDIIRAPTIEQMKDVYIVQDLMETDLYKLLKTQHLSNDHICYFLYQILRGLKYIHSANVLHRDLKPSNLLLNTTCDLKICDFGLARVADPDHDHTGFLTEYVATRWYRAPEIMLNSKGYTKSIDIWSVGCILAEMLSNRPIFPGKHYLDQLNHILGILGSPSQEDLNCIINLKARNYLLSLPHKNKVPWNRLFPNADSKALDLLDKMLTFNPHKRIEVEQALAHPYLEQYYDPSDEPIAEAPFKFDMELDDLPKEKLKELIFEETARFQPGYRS
Tyrosine-protein kinase Mer (Homo sapiens), sequence (Q12866 whole entry): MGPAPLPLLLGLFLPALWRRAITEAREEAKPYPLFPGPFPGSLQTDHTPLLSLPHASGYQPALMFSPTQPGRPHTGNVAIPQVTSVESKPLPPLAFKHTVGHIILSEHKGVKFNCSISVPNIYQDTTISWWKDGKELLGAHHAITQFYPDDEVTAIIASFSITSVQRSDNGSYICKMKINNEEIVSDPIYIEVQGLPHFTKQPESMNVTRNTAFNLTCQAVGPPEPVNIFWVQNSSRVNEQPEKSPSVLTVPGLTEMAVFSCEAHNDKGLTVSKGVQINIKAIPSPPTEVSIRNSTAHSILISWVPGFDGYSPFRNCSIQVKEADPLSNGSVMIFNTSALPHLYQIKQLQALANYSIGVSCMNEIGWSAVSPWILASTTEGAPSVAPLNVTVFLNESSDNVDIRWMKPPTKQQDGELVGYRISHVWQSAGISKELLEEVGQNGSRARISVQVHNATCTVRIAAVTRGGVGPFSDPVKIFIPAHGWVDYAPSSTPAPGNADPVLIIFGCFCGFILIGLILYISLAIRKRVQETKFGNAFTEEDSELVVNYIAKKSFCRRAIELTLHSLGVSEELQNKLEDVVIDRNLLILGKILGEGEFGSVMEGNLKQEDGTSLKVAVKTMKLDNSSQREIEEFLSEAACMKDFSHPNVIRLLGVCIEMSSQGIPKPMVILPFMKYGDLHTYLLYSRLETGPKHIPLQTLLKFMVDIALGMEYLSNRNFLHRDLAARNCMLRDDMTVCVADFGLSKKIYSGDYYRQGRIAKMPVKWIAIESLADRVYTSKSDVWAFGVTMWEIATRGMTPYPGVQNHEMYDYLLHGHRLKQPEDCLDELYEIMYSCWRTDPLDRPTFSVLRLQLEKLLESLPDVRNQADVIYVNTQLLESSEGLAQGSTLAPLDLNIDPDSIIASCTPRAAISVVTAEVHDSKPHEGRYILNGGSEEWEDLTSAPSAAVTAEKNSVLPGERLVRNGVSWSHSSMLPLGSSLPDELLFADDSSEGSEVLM

COC(=O)c1cc2cc(NCc3cc(NC(=O)c4cc(-n5cnc(C)c5)cc(C(F)(F)F)c4)ccc3C)cnc2[nH]1
0.038 µM: EC50 (HepG2)
0.073 µM: IC50 [22]
0.558 µg·h/mL: AUC(0-inf) [5]
0.152 µM: EC50 [33]
49%: inhibition [23]
1.2 µM: EC50 (PBMC)
0.037 µM: EC50 (HT-29)
0.131 µM: IC50 [28]
0.062 µM: EC50 [29]
0.022 µM: IC50 [9]
46%: inhibition [1]
0.064 µM: EC50 (A549)
> 80%: inhibition [13] | inhibition [27] | inhibition [30]
< 40%: inhibition [2] | inhibition [3] | inhibition (Homo sapiens) | inhibition [4] | inhibition [6] | inhibition [7] | inhibition [8] | inhibition [10] | inhibition [11] | inhibition [12] | inhibition [14] | inhibition [15] | inhibition [16] | inhibition [17] | inhibition [18] | inhibition [19] | inhibition [20] | inhibition [21] | inhibition [24] | inhibition [25] | inhibition [26] | inhibition [31] | inhibition [32] | inhibition [34] | inhibition [35] | inhibition [36] | inhibition [37] | inhibition [38] | inhibition [39]
